Paper PMC7377239, “Cardiovascular Effects of Polychlorinated Biphenyls and Their Major Metabolites” (Environmental Health Perspectives, 2020)
Like-named read-outs stand apart in the source and are kept apart here.

Key:
[1] = system: iCell endothelial cells (human iPSC-derived ECs); experiment: High-content imaging cytotoxicity in iCell endothelial cells, 24 h; assay type: cell-based; conditions: Homo sapiens, Endothelial cell, 24 hr; for viability at 0.1 µM / activity at 0.1 µM: 0.10 µM
Method in brief: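 Human iPSC-derived endothelial cells (passages 1–5) were grown to a fibronectin-coated monolayer, then exposed 24 h at 37 °C with 0.5% DMSO vehicle. Staining was Hoechst 33342, MitoTracker Orange and calcein AM, read by high-content imaging. Point of departure came from 4-parameter logistic fits, with a 1-SD vehicle cutoff and 100 µM as the top concentration.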

HUVECs = experiment: High-content imaging cytotoxicity in HUVECs, 24 h; assay type: cell-based, human; conditions: Homo sapiens, HUVEC, 24 h; for viability at 0.01 µM / activity at 0.01 µM / viability at 0.1 µM / activity at 0.1 µM / viability at 1 µM / activity at 1 µM / viability at 10 µM / activity at 10 µM / viability at 100 µM / activity at 100 µM: 0.00 µM = 100.00; for viability at 0.1 µM / activity at 0.1 µM: 0.10 µM
Method in brief: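 Point-of-departure values derive from four-parameter logistic fits of vehicle-normalized imaging phenotypes (Hoechst 33342, MitoTracker Orange, calcein AM). The fits follow 24 h exposure of HUVEC monolayers at 37°C and 5% CO2, with a top tested concentration of 100μM.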

[2] = iPSC-EC, 0.00 µM control = 100.00, read-out: endo.cyto.24hr
[3] = iPSC-EC, 0.00 µM control = 100.00, read-out: endo.mito.24hr
[4] = iPSC-EC, 0.00 µM control = 100.00, read-out: endo.mitoint.24hr
[5] = iPSC-EC, 0.00 µM control = 100.00, read-out: endo.nma.24hr
[6] = iPSC-EC, 0.00 µM control = 100.00, read-out: endo.tc.24hrs
[7] = HUVECs, 24 hr, read-out: huvec.cyto.24hr
[8] = HUVECs, 24 hr, read-out: huvec.mito.24hr
[9] = HUVECs, 24 hr, read-out: huvec.mitoint.24hr
[10] = HUVECs, 24 hr, read-out: huvec.nma.24hr
[11] = HUVECs, 24 hrs, read-out: huvec.tc.24hrs

Molecule `Oc1cc(Cl)c(-c2cc(Cl)ccc2Cl)cc1Cl` [4-OH PCB52] has a viability at 0.01 µM [1, 2] of 96.8%, an activity at 0.01 µM [1, 3] of 96.3% and an activity at 0.01 µM [1, 4] of 90.5%. It also gave an activity at 0.01 µM [1, 5] of 104%, a viability at 0.01 µM [1, 6] of 96.8% and a viability at 0.1 µM [1, 2] of 94.9%. It also gave an activity at 0.1 µM [1, 3] of 94.5%, an activity at 0.1 µM [1, 4] of 89.8% and an activity at 0.1 µM [1, 5] of 104%. It also gave a viability at 0.1 µM [1, 6] of 94.9%, a viability at 1 µM [1, 2] of 101% and an activity at 1 µM [1, 3] of 101%. The activity at 1 µM [1, 4] was 88.2%, the activity at 1 µM [1, 5] was 103% and the viability at 1 µM [1, 6] was 101%. The viability at 10 µM [1, 2] was 98%, the activity at 10 µM [1, 3] was 98% and the activity at 10 µM [1, 4] was 98.3%. The activity at 10 µM [1, 5] was 103%, the viability at 10 µM [1, 6] was 98% and the viability at 100 µM [1, 2] was 42.3%. It also gave an activity at 100 µM [1, 3] of 39.7%, an activity at 100 µM [1, 4] of 51.4% and an activity at 100 µM [1, 5] of 89.3%. The viability at 100 µM [1, 6] was 49.3%, the minimal effective concentration ([1]; iPSC-EC, top concentration 100.00 µM, read-out: endo.cyto.24hr POD) was 13.2 µM and the minimal effective concentration ([1]; iPSC-EC, top concentration 100.00 µM, read-out: endo.mito.24hr POD) was 13.2 µM. For the same molecule, the minimal effective concentration ([1]; iPSC-EC, top concentration 100.00 µM, read-out: endo.mitoint.24hr POD) was 43.8 µM, the minimal effective concentration ([1]; iPSC-EC, top concentration 100.00 µM, read-out: endo.nma.24hr POD) was 63.5 µM and the minimal effective concentration ([1]; iPSC-EC, top concentration 100.00 µM, read-out: endo.tc.24hrs POD) was 16.6 µM. For the same molecule, the viability at 0.01 µM (HUVECs; [7]) was 94.4%, the activity at 0.01 µM (HUVECs; [8]) was 93.5% and the activity at 0.01 µM (HUVECs; [9]) was 103%. For the same molecule, the activity at 0.01 µM (HUVECs; [10]) was 98.9%, the viability at 0.1 µM (HUVECs; [7]) was 120% and the activity at 0.1 µM (HUVECs; [8]) was 118%. The activity at 0.1 µM (HUVECs; [9]) was 104%, the activity at 0.1 µM (HUVECs; [10]) was 94.5% and the viability at 1 µM (HUVECs; [7]) was 93.9%. It also gave an activity at 1 µM (HUVECs; [8]) of 93.9%, an activity at 1 µM (HUVECs; [9]) of 111% and an activity at 1 µM (HUVECs; [10]) of 98%. The viability at 10 µM (HUVECs; [7]) was 46.9%, the activity at 10 µM (HUVECs; [8]) was 33.2% and the activity at 10 µM (HUVECs; [9]) was 15.3%. For the same molecule, the activity at 10 µM (HUVECs; [10]) was 61.6%, the viability at 100 µM (HUVECs; [7]) was 72% and the activity at 100 µM (HUVECs; [8]) was 0.65%. For the same molecule, the activity at 100 µM (HUVECs; [9]) was 5.52%, the activity at 100 µM (HUVECs; [10]) was 119% and the minimal effective concentration (HUVECs; HUVECs, 24 hr, top concentration 100.00 µM, read-out: huvec.cyto.24hr POD) was 1 µM. It also gave a minimal effective concentration (HUVECs; HUVECs, 24 hr, top concentration 100.00 µM, read-out: huvec.mito.24hr POD) of 1.1 µM, a minimal effective concentration (HUVECs; HUVECs, 24 hr, top concentration 100.00 µM, read-out: huvec.mitoint.24hr POD) of 2.32 µM and a minimal effective concentration (HUVECs; HUVECs, 24 hr, top concentration 100.00 µM, read-out: huvec.nma.24hr POD) of 100 µM. It also gave a viability at 0.01 µM (HUVECs; [11]) of 94.4%, a viability at 0.1 µM (HUVECs; [11]) of 120% and a viability at 1 µM (HUVECs; [11]) of 93.9%. It also gave a viability at 10 µM (HUVECs; [11]) of 46.9%, a viability at 100 µM (HUVECs; [11]) of 77.5% and a minimal effective concentration (HUVECs; HUVECs, 24 hrs, top concentration 100.00 µM, read-out: huvec.tc.24hrs POD) of 1 µM.

Molecule `Oc1ccc(-c2cccc(Cl)c2)cc1Cl` [4-OH-PCB 11] has a minimal effective concentration ([1]; endothelial cells (endo), cyto, read-out: POD endo.cyto.24hr) of 43.6 µM, a minimal effective concentration ([1]; endothelial cells (endo), mito, read-out: POD endo.mito.24hr) of 43.6 µM and a minimal effective concentration ([1]; endothelial cells (endo), mitoint, read-out: POD endo.mitoint.24hr) of 13 µM. It also gave a minimal effective concentration ([1]; endothelial cells (endo), nma, read-out: POD endo.nma.24hr) of 9.66 µM, a minimal effective concentration ([1]; endothelial cells (endo), tc, read-out: POD endo.tc.24hr) of 62.1 µM and a minimal effective concentration (HUVECs; cyto, 24 hr, read-out: POD huvec.cyto.24hr) of 1.37 µM. For the same molecule, the minimal effective concentration (HUVECs; mito, 24 hr, read-out: POD huvec.mito.24hr) was 1.2 µM, the minimal effective concentration (HUVECs; mitoint, 24 hr, read-out: POD huvec.mitoint.24hr) was 5.43 µM and the minimal effective concentration (HUVECs; nma, 24 hr, read-out: POD huvec.nma.24hr) was 0.99 µM. It also gave a minimal effective concentration (HUVECs; tc, 24 hr, read-out: POD huvec.tc.24hr) of 1.37 µM.
